These results are taken from US20240425464A1, “Substituted Monohydrazides as Potent Antifungal Agents” (University of Kentucky Research Foundation, priority 2023, published 2024).

Holding throughout (type): cell-based, Candida auris
The subject of assay [1] is C. auris AR Bank #385. The experiment in a line: MIC determination by in vitro antifungal assay. The conditions noted are these: C. auris AR Bank # 385 (Table 2B). How it is done:
(§1) The antifungal agent amphotericin B (AmB) was purchased from VWR (Radnor PA, USA). AmB was dissolved in DMSO at a final concentration of 5 mg/mL and was stored at −20° C., protected from light. Candida albicans American Type Culture Collection (ATCC) 10231 (strain A), C. albicans ATCC 64124 (B), and C. albicans ATCC MYA-2876 (C) were obtained from Utah State University. C. albicans ATCC 90819 (D), C. albicans ATCC MYA-2310 (E), C. albicans ATCC MYA-1237 (F), C. albicans ATCC MYA-1003 (G), Candida glabrata ATCC 2001 (H), Candida krusei ATCC 6258 (I), Candida parapsilosis ATCC 22019 (J), Cryptococcus neoformans ATCC MYA-895 (M), Aspergillus terreus ATCC MYA-3633 (N), and Aspergillus flavus ATCC MYA-3631 (0) were obtained from the American Type Culture Collection (ATCC; Manassas, VA, USA). Aspergillus nidulans ATCC 38163 (P) was obtained from University of Kentucky. Clinically derived Aspergillus fumigatus NRRL 163 (Q), A. fumigatus NRRL 5109 (R), and A. fumigatus NRRL 6113 (S) were obtained from Northern Regional Research Laboratory (NRRL). Candida auris 384 (K), C. auris 390 (L), and fungal strains 381-400 (including 10 C. auris (AR Bank #381-390), 3 Candida duobushaemulonii (AR Bank #391, AR Bank #392, and AR Bank #394), 2 Candida haemulonii (AR Bank #393 and AR Bank #395), 1 Kodameae ohmeri (AR Bank #396), 1 C. krusei (AR Bank #397), 1 Candida lusitaniae (AR Bank #398), and 2 Saccharomyces cerevisiae strains (AR Bank #399 and AR Bank #400)) were part of a larger fungal library from the AR Bank maintained by the Centers for Disease Control and Prevention (CDC; Atlanta, GA, USA). Filamentous fungi and yeasts were cultivated at 35° C. in RPMI 1640 medium (with L-glutamine, without sodium bicarbonate, Sigma-Aldrich, St. Louis, MO) buffered to a pH of 7.0 with 0.165 M morpholinepropanesulfonic acid (MOPS) buffer (Sigma-Aldrich). For cytotoxicity assays, HepG2 and the mouse macrophage cell line J774A.1 were obtained from University of Kentucky. The human embryonic kidney cell line, HEK-293, was bought from the ATCC. Mammalian cells were grown in Dulbecco's Modified Eagle's Medium (DMEM) (from VWR) with 10% fetal bovine serum (FBS) (from VWR) and 1% Pen/Strep (from ATCC). Cell lines were cultured at 37° C. with 5% CO2 and passaged by trypsinization with 0.05% trypsin: 0.53 mM EDTA (from Sigma-Aldrich).
(§2) From the actively growing yeast culture, 100 µL were then transferred to 900 μL of RPMI 1640 medium and re-adjusted to achieve OD600 of 0.12 (˜1×10^6 CFU/mL). The cell suspension was further diluted to achieve 1:100 in RPMI 1640 medium.

Assay [2] concerns C. auris AR Bank #381. The assay is described as follows: MIC determination by in vitro antifungal assay. The conditions noted are these: C. auris AR Bank # 381 (Table 2B). As for the experimental part: as §1, §2
Assay [3] concerns C. auris AR Bank #386. The experiment in a line: MIC determination by in vitro antifungal assay. The conditions noted are these: C. auris AR Bank # 386 (Table 2B). How it is done:
as §1, §2

The subject of assay [4] is C. auris AR Bank #383. The experiment in a line: MIC determination by in vitro antifungal assay. Conditions: C. auris AR Bank # 383 (Table 2B). How it is done:
as §1, §2

The subject of assay [5] is C. auris AR Bank #388. The assay is described as follows: MIC determination by in vitro antifungal assay. The conditions noted are these: C. auris AR Bank # 388 (Table 2B). How it is done:
as §1, §2

For assay [6], the system named is C. auris AR Bank #387. The experiment in a line: MIC determination by in vitro antifungal assay. The conditions noted are these: C. auris AR Bank # 387 (Table 2B). How it is done: as §1, §2
The test system of assay [7] is C. auris AR Bank #389. The assay is described as follows: MIC determination by in vitro antifungal assay. The conditions noted are these: C. auris AR Bank # 389 (Table 2B). As for the experimental part: as §1, §2
For assay [8], the system named is C. auris AR Bank #382. The experiment in a line: MIC determination by in vitro antifungal assay. The conditions noted are these: C. auris AR Bank # 382 (Table 2B). As for the experimental part: as §1, §2
Assay [9] has as its system panel of ten C. auris strains (AR Bank #381-390). The assay is described as follows: MIC determination, summary over the C. auris panel. The conditions noted are these: Candidozyma auris. As for the experimental part: as §1, §2
Where [10] appears, read: against all ten C. auris strains tested (AR Bank #381-390).
Setting [11] is: Candidozyma auris, read-out: MIC.

Converted amounts (≈) assume the structure as drawn. Like-named read-outs stand apart in the source and are kept apart here.

Take `O=C(NNc1ccc(Cl)cc1)c1cccc(F)n1` [Compound 5e]: the MIC is recorded as 3.9 μg/mL^−1 in [1]; 7.8 μg/mL^−1 in assay [2]; 7.8 μg/mL^−1 in [3]; 3.9 μg/mL^−1 in [4]; 7.8 μg/mL^−1 in assay [5]; 7.8 μg/mL^−1 in assay [6]. Besides, the MIC in [7] and in assay [8] was 7.8 μg/mL^−1 each time.
As to `O=C(NNc1ccc(F)cc1F)c1cccc(F)n1` [Compound 5g], the MIC in [9] (setting [10]) is 0.12 to 7.8 µg/mL (≈ 0.449 to 29.2 µM); in [1] (setting [11]), 3.9 µg/mL (≈ 14.6 µM); in [2] (setting [11]), 3.9 µg/mL (≈ 14.6 µM); in assay [3] (setting [11]), 1.95 µg/mL (≈ 7.3 µM); in assay [4] (setting [11]), 1.95 µg/mL (≈ 7.3 µM); in assay [5] (setting [11]) it was 3.9 µg/mL (≈ 14.6 µM). Also, the MIC in assay [6] (setting [11]) was determined as 1.95 µg/mL (≈ 7.3 µM); in assay [7] (setting [11]), 3.9 µg/mL (≈ 14.6 µM); in [8] (setting [11]) it was 0.98 µg/mL (≈ 3.67 µM).
As to `O=C(NNc1ccc(F)cc1)c1cccc(Br)n1` [Compound 6d], the MIC in [9] (setting [10]) was 0.12 to 7.8 µg/mL (≈ 0.387 to 25.2 µM); in assay [1] (setting [11]), 0.98 µg/mL (≈ 3.16 µM); in [2] (setting [11]), 1.95 µg/mL (≈ 6.29 µM); in [3] (setting [11]), 1.95 µg/mL (≈ 6.29 µM); in assay [4] (setting [11]), 1.95 µg/mL (≈ 6.29 µM); in assay [5] (setting [11]), 0.98 µg/mL (≈ 3.16 µM). Further, the MIC was 0.98 µg/mL (≈ 3.16 µM) in assay [6] (setting [11]), 1.95 µg/mL (≈ 6.29 µM) in assay [7] (setting [11]) and 0.98 µg/mL (≈ 3.16 µM) in [8] (setting [11]).
On to `O=C(NNc1ccc(F)cc1)c1ncc(F)cc1F` [Compound 7d], for which the MIC in assay [9] (setting [10]) was 0.12 to 7.8 µg/mL (≈ 0.449 to 29.2 µM); in assay [1] (setting [11]) it was 0.49 µg/mL (≈ 1.83 µM); in assay [2] (setting [11]), 1.95 µg/mL (≈ 7.3 µM); in assay [3] (setting [11]), 0.98 µg/mL (≈ 3.67 µM); in assay [4] (setting [11]), 1.95 µg/mL (≈ 7.3 µM); in assay [5] (setting [11]), 0.49 µg/mL (≈ 1.83 µM). Also, the results for the MIC in assay [6] (setting [11]), in assay [7] (setting [11]) and in assay [8] (setting [11]) were 0.49 µg/mL (≈ 1.83 µM), 1.95 µg/mL (≈ 7.3 µM) and 0.98 µg/mL (≈ 3.67 µM), respectively.
For `O=C(NNc1ccc(Cl)cc1)c1ncc(F)cc1F` [Compound 7e], the MIC in assay [1] amounted to 7.8 μg/mL^−1; in assay [2] it was 7.8 μg/mL^−1; in assay [3], 15.6 μg/mL^−1; in [4] it was 3.9 μg/mL^−1; in [5], 7.8 μg/mL^−1; in assay [6] it was 15.6 μg/mL^−1. Further, the figures for the MIC in assay [7] and in assay [8] were 7.8 μg/mL^−1 and 15.6 μg/mL^−1, respectively.
For the compound `COc1ccc(NNC(=O)c2ncc(F)cc2F)cc1` [Compound 7f], the MIC in [9] (all C. auris strains tested with the exception of AR Bank #390) is 0.49 to 1.95 µg/mL (≈ 1.75 to 6.98 µM); in [1] (setting [11]), 0.49 µg/mL (≈ 1.75 µM); in assay [2] (setting [11]), 0.98 µg/mL (≈ 3.51 µM); in [3] (setting [11]), 0.98 µg/mL (≈ 3.51 µM); in assay [4] (setting [11]), 0.98 µg/mL (≈ 3.51 µM); in [5] (setting [11]) it was 0.98 µg/mL (≈ 3.51 µM). In addition, the MIC in assay [6] (setting [11]), in assay [7] (setting [11]) and in assay [8] (setting [11]) was 0.98 µg/mL (≈ 3.51 µM) each time.
In the case of `O=C(NNc1ccc(F)cc1F)c1ncc(F)cc1F` [Compound 7g], the MIC in assay [9] (setting [10]) was 0.12 to 7.8 µg/mL (≈ 0.421 to 27.3 µM); in assay [1] (setting [11]) it was 0.98 µg/mL (≈ 3.44 µM); in [2] (setting [11]), 3.9 µg/mL (≈ 13.7 µM); in assay [3] (setting [11]), 1.95 µg/mL (≈ 6.84 µM); in assay [4] (setting [11]) it was 3.9 µg/mL (≈ 13.7 µM); in assay [5] (setting [11]) it was 3.9 µg/mL (≈ 13.7 µM). Moreover, the MIC was determined as 1.95 µg/mL (≈ 6.84 µM) in assay [6] (setting [11]), 3.9 µg/mL (≈ 13.7 µM) in assay [7] (setting [11]) and 1.95 µg/mL (≈ 6.84 µM) in assay [8] (setting [11]).
Consider `O=C(NNc1ccc(Cl)cc1)c1nc(F)ccc1F` [Compound 8e], for which the MIC in assay [1] is recorded as 3.9 μg/mL^−1; in assay [2], 7.8 μg/mL^−1; in assay [3], 15.6 μg/mL^−1; in assay [4], 7.8 μg/mL^−1; in assay [5] it was 15.6 μg/mL^−1; in assay [6], 7.8 μg/mL^−1. The MIC in assay [7] and in assay [8] was 7.8 μg/mL^−1 throughout.
